How the values were obtained:
Test in all cases: relative viability (nuclei count vs DMSO), 5 days (fraction); higher = more cells survive
NCI-H1734 = test system: NCI-H1734
Outline: (§1)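 Lung cancer cell lines, seeded in 1536-well plates, were treated the following day by pin tool with a single drug or with five library-drug doses (not always all listed) in √10 steps on top of a fixed anchor-drug dose. Cells were fixed and nuclei stained in one step after 5 days, and nuclei were counted. Relative viability is the nuclei count for treated wells divided by that for vehicle wells, reported as medians of duplicate plates.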

CAL-12T = test system: CAL-12T
Outline: as §1

LC-2-ad = test system: LC-2-ad
Outline: as §1

H3255 = test system: H3255
Outline: as §1

HCC-366 = test system: HCC-366
Outline: as §1

NCI-H1915 = test system: NCI-H1915
Outline: as §1

NCI-H2347 = test system: NCI-H2347
Outline: as §1

HARA = test system: HARA
Outline: as §1

NCI-H838 = test system: NCI-H838
Outline: as §1

ABC-1 = test system: ABC-1
Outline: as §1

RERF-LC-KJ = test system: RERF-LC-KJ
Outline: as §1

HCC-15 = test system: HCC-15
Outline: as §1

COR-L 105 = test system: COR-L 105
Outline: as §1

LU99A = test system: LU99A
Outline: as §1

NCI-H460 = test system: NCI-H460
Outline: as §1

PC-14 = test system: PC-14
Outline: as §1

NCI-H650 = test system: NCI-H650
Outline: as §1

NCI-H727 = test system: NCI-H727
Outline: as §1

SW 900 = test system: SW 900
Outline: as §1

NCI-H1666 = test system: NCI-H1666
Outline: as §1

NCI-H1944 = test system: NCI-H1944
Outline: as §1

NCI-H1437 = test system: NCI-H1437
Outline: as §1

Which results are given for `Oc1nc(-c2ccc(C(F)(F)F)cc2)nc2c1CSCC2` [XAV939] + Cc1nc(Nc2ncc(C(=O)Nc3c(C)cccc3Cl)s2)cc(N2CCN(CCO)CC2)n1 [Dasatinib] (partner 0.075 µM)?
relative viability (NCI-H1734; first compound 0.08 µM): 0.501; relative viability (NCI-H1734; first compound 0.253 µM): 0.476; relative viability (NCI-H1734; first compound 0.8 µM): 0.419; relative viability (NCI-H1734; first compound 2.53 µM): 0.357; relative viability (CAL-12T; first compound 0.08 µM): 0.572; relative viability (CAL-12T; first compound 0.253 µM): 0.401; relative viability (CAL-12T; first compound 0.8 µM): 0.308; relative viability (CAL-12T; first compound 2.53 µM): 0.211; relative viability (LC-2-ad; first compound 0.08 µM): 0.729; relative viability (LC-2-ad; first compound 0.253 µM): 0.446; relative viability (LC-2-ad; first compound 0.8 µM): 0.553; relative viability (LC-2-ad; first compound 2.53 µM): 0.595; relative viability (H3255; first compound 0.08 µM): 0.341; relative viability (H3255; first compound 0.253 µM): 0.373; relative viability (H3255; first compound 0.8 µM): 0.313; relative viability (H3255; first compound 2.53 µM): 0.448; relative viability (HCC-366; first compound 0.08 µM): 0.598; relative viability (HCC-366; first compound 0.253 µM): 0.589; relative viability (HCC-366; first compound 0.8 µM): 0.824; relative viability (HCC-366; first compound 2.53 µM): 0.598; relative viability (NCI-H1915; first compound 0.08 µM): 0.353; relative viability (NCI-H1915; first compound 0.253 µM): 0.214; relative viability (NCI-H1915; first compound 0.8 µM): 0.311; relative viability (NCI-H1915; first compound 2.53 µM): 0.298; relative viability (NCI-H2347; first compound 0.08 µM): 0.258; relative viability (NCI-H2347; first compound 2.53 µM): 0.335; relative viability (HARA; first compound 0.08 µM): 0.229; relative viability (HARA; first compound 0.253 µM): 0.201; relative viability (HARA; first compound 0.8 µM): 0.275; relative viability (HARA; first compound 2.53 µM): 0.256; relative viability (NCI-H838; first compound 0.08 µM): 0.217; relative viability (NCI-H838; first compound 0.253 µM): 0.256; relative viability (NCI-H838; first compound 0.8 µM): 0.284; relative viability (NCI-H838; first compound 2.53 µM): 0.212; relative viability (ABC-1; first compound 0.08 µM): 0.546; relative viability (ABC-1; first compound 0.253 µM): 0.534; relative viability (ABC-1; first compound 0.8 µM): 0.467; relative viability (ABC-1; first compound 2.53 µM): 0.415; relative viability (RERF-LC-KJ; first compound 0.08 µM): 0.77; relative viability (RERF-LC-KJ; first compound 0.253 µM): 0.643; relative viability (RERF-LC-KJ; first compound 0.8 µM): 0.55; relative viability (RERF-LC-KJ; first compound 2.53 µM): 0.46; relative viability (HCC-15; first compound 0.08 µM): 0.633; relative viability (HCC-15; first compound 0.253 µM): 0.463; relative viability (HCC-15; first compound 0.8 µM): 0.601; relative viability (HCC-15; first compound 2.53 µM): 0.54; relative viability (COR-L 105; first compound 0.08 µM): 0.348; relative viability (COR-L 105; first compound 0.253 µM): 0.378; relative viability (COR-L 105; first compound 0.8 µM): 0.315; relative viability (COR-L 105; first compound 2.53 µM): 0.273; relative viability (LU99A; first compound 0.08 µM): 0.503; relative viability (LU99A; first compound 0.253 µM): 0.56; relative viability (LU99A; first compound 0.8 µM): 0.591; relative viability (LU99A; first compound 2.53 µM): 0.457; relative viability (NCI-H460; first compound 0.08 µM): 0.479; relative viability (NCI-H460; first compound 0.253 µM): 0.533; relative viability (NCI-H460; first compound 0.8 µM): 0.482; relative viability (NCI-H460; first compound 2.53 µM): 0.467; relative viability (PC-14; first compound 0.08 µM): 0.288; relative viability (PC-14; first compound 0.253 µM): 0.252; relative viability (PC-14; first compound 0.8 µM): 0.204; relative viability (PC-14; first compound 2.53 µM): 0.148; relative viability (NCI-H650; first compound 0.08 µM): 0.497; relative viability (NCI-H650; first compound 0.253 µM): 0.501; relative viability (NCI-H650; first compound 0.8 µM): 0.444; relative viability (NCI-H650; first compound 2.53 µM): 0.414; relative viability (NCI-H727; first compound 0.08 µM): 0.332; relative viability (NCI-H727; first compound 0.253 µM): 0.452; relative viability (NCI-H727; first compound 0.8 µM): 0.442; relative viability (NCI-H727; first compound 2.53 µM): 0.405; relative viability (SW 900; first compound 0.08 µM): 0.545; relative viability (SW 900; first compound 0.253 µM): 0.463; relative viability (SW 900; first compound 0.8 µM): 0.51; relative viability (SW 900; first compound 2.53 µM): 0.435; relative viability (NCI-H1666; first compound 0.08 µM): 0.921; relative viability (NCI-H1666; first compound 0.253 µM): 0.801; relative viability (NCI-H1666; first compound 0.8 µM): 0.761; relative viability (NCI-H1666; first compound 2.53 µM): 0.744; relative viability (NCI-H1944; first compound 0.08 µM): 0.239; relative viability (NCI-H1944; first compound 0.253 µM): 0.248; relative viability (NCI-H1944; first compound 0.8 µM): 0.226; relative viability (NCI-H1944; first compound 2.53 µM): 0.218; relative viability (NCI-H1437; first compound 0.08 µM): 0.353; relative viability (NCI-H1437; first compound 0.253 µM): 0.488; relative viability (NCI-H1437; first compound 0.8 µM): 0.416; relative viability (NCI-H1437; first compound 2.53 µM): 0.654
